The data set is described as follows: activity coefficient (dimensionless); of the first substance listed, at infinite dilution; xn = mol fraction of the nth substance listed. The conditions noted are these: 101 kPa, Liquid, Chromatography, x1 = 0.

± gives the expanded uncertainty stated by the source.

Turning to `CCO` [ethanol] + C[N+]1(CCCO)CCOCC1.O=S(=O)([N-]S(=O)(=O)C(F)(F)F)C(F)(F)F, the activity coefficient was 1.4 ± 0.09 (318.15 K); 1.37 ± 0.09 (328.15 K); 1.34 ± 0.09 (338.15 K); 1.3 ± 0.08 (348.15 K); 1.28 ± 0.08 (358.15 K); 1.25 ± 0.08 (368.15 K).
Consider `CO` [methanol] + C[N+]1(CCCO)CCOCC1.O=S(=O)([N-]S(=O)(=O)C(F)(F)F)C(F)(F)F, for which the activity coefficient by setting is: (318.15 K) 0.945 ± 0.06; (328.15 K) 0.929 ± 0.059; (338.15 K) 0.915 ± 0.058; (348.15 K) 0.899 ± 0.057; (358.15 K) 0.884 ± 0.056; (368.15 K) 0.872 ± 0.056.
On to `CCCCCC` [hexane] + C[N+]1(CCCO)CCOCC1.O=S(=O)([N-]S(=O)(=O)C(F)(F)F)C(F)(F)F, for which the activity coefficient by setting is: (298.15 K) 267 ± 18; (308.15 K) 201 ± 14; (318.15 K) 154 ± 11; (328.15 K) 122 ± 8.
On to `CCCO` [propan-1-ol] + C[N+]1(CCCO)CCOCC1.O=S(=O)([N-]S(=O)(=O)C(F)(F)F)C(F)(F)F, for which the activity coefficient (318.15 K) amounted to 2.06 ± 0.14; the activity coefficient (328.15 K) came to 2.01 ± 0.14; the activity coefficient (338.15 K) was determined as 1.96 ± 0.13; the activity coefficient (348.15 K) is 1.92 ± 0.13; the activity coefficient (358.15 K) amounted to 1.88 ± 0.13; the activity coefficient (368.15 K) is 1.84 ± 0.12.
Take `c1ccsc1` [thiophene] + C[N+]1(CCCO)CCOCC1.O=S(=O)([N-]S(=O)(=O)C(F)(F)F)C(F)(F)F: the activity coefficient reads like this: (318.15 K) 1.89 ± 0.13; (328.15 K) 1.92 ± 0.13; (338.15 K) 1.95 ± 0.13; (348.15 K) 1.98 ± 0.13; (358.15 K) 2 ± 0.14; (368.15 K) 2.03 ± 0.14.
For the compound `C1CCCCCC1` [cycloheptane] + C[N+]1(CCCO)CCOCC1.O=S(=O)([N-]S(=O)(=O)C(F)(F)F)C(F)(F)F, the activity coefficient reads like this: (318.15 K) 82.8 ± 5.7; (328.15 K) 71 ± 4.9; (338.15 K) 62.6 ± 4.3; (348.15 K) 54.5 ± 3.7; (358.15 K) 47.2 ± 3.2; (368.15 K) 43 ± 2.9.
`CC(C)CO` [2-methyl-1-propanol] + C[N+]1(CCCO)CCOCC1.O=S(=O)([N-]S(=O)(=O)C(F)(F)F)C(F)(F)F: the activity coefficient was found to be 3.25 ± 0.22 (318.15 K); 3.08 ± 0.21 (328.15 K); 2.94 ± 0.2 (338.15 K); 2.78 ± 0.19 (348.15 K); 2.65 ± 0.18 (358.15 K); 2.54 ± 0.17 (368.15 K).
As to `CCc1ccccc1` [ethylbenzene] + C[N+]1(CCCO)CCOCC1.O=S(=O)([N-]S(=O)(=O)C(F)(F)F)C(F)(F)F, the activity coefficient worked out at 7.33 ± 0.5 (318.15 K); 7.28 ± 0.5 (328.15 K); 7.22 ± 0.49 (338.15 K); 7.18 ± 0.49 (348.15 K); 7.13 ± 0.49 (358.15 K); 7.09 ± 0.48 (368.15 K).
On to `C=CCCCCC` [1-heptene] + C[N+]1(CCCO)CCOCC1.O=S(=O)([N-]S(=O)(=O)C(F)(F)F)C(F)(F)F, for which the activity coefficient turned out to be 86.6 ± 5.9 (318.15 K); 75.8 ± 5.2 (328.15 K); 69.3 ± 4.7 (338.15 K); 62.2 ± 4.3 (348.15 K); 55.7 ± 3.8 (358.15 K); 51.1 ± 3.5 (368.15 K).
For `CCCCCCC` [heptane] + C[N+]1(CCCO)CCOCC1.O=S(=O)([N-]S(=O)(=O)C(F)(F)F)C(F)(F)F, the activity coefficient worked out at 345 ± 24 (298.15 K); 280 ± 19 (308.15 K); 223 ± 15 (318.15 K); 192 ± 13 (328.15 K); 162 ± 11 (338.15 K); 141 ± 10 (348.15 K). The activity coefficient by setting is: (358.15 K) 116 ± 8; (368.15 K) 105 ± 7.
As to `CCCCCCCCC` [nonane] + C[N+]1(CCCO)CCOCC1.O=S(=O)([N-]S(=O)(=O)C(F)(F)F)C(F)(F)F, the activity coefficient turned out to be 445 ± 31 (318.15 K); 385 ± 26 (328.15 K); 332 ± 23 (338.15 K); 287 ± 20 (348.15 K); 249 ± 17 (358.15 K); 224 ± 15 (368.15 K).
In the case of `CC(C)(C)O` [2-methylpropan-2-ol] + C[N+]1(CCCO)CCOCC1.O=S(=O)([N-]S(=O)(=O)C(F)(F)F)C(F)(F)F, the activity coefficient was determined as 2.09 ± 0.14 (318.15 K); 2.06 ± 0.14 (328.15 K); 2.03 ± 0.14 (338.15 K); 2 ± 0.14 (348.15 K); 1.97 ± 0.13 (358.15 K); 1.95 ± 0.13 (368.15 K).
As for `C1CCOC1` [tetrahydrofuran] + C[N+]1(CCCO)CCOCC1.O=S(=O)([N-]S(=O)(=O)C(F)(F)F)C(F)(F)F, the activity coefficient (318.15 K) amounted to 0.968 ± 0.061; the activity coefficient (328.15 K) was 1.03 ± 0.06; the activity coefficient (338.15 K) is 1.08 ± 0.07; the activity coefficient (348.15 K) worked out at 1.12 ± 0.07; the activity coefficient (358.15 K) amounted to 1.18 ± 0.08; the activity coefficient (368.15 K) came to 1.23 ± 0.08.
Regarding `c1ccncc1` [pyridine] + C[N+]1(CCCO)CCOCC1.O=S(=O)([N-]S(=O)(=O)C(F)(F)F)C(F)(F)F, the activity coefficient runs as follows: (318.15 K) 0.414 ± 0.034; (328.15 K) 0.461 ± 0.036; (338.15 K) 0.501 ± 0.038; (348.15 K) 0.55 ± 0.04; (358.15 K) 0.593 ± 0.042; (368.15 K) 0.639 ± 0.044.

The record behind these values is the NIST ThermoML archive (doi:10.1016/j.jct.2015.02.024).
